The supplement of paper PMC10307832

Key:
Experiment in all cases: relative viability (nuclei count vs DMSO), 5 days (fraction); higher = more cells survive
XMD14-99 + Pemetrexed = compound: CN1CCN(CC1)C2=CC(=C(C=C2)NC3=NC(=C(S3)C(=O)C4=C(C=CC=C4Cl)Cl)N)OC [XMD14-99] + Nc1nc2[nH]cc(CCc3ccc(C(=O)N[C@@H](CCC(=O)O)C(=O)O)cc3)c2c(=O)[nH]1 [Pemetrexed] (partner 0.2 µM)
How it was run: (§1)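 For relative viability, nuclei counts in treated wells were divided by those in vehicle wells. Lung cancer cell lines had been pin-tool dosed in 1536-well plates the day after seeding and cultured for 5 days, then fixed and stained in one step (final 0.05% Triton X-100, 1% formaldehyde, 1 ug/ml Hoechst) and imaged at 4×. Doses were one drug alone or a fixed anchor-drug dose plus five library-drug doses (not always all listed) in √10 steps, and values are duplicate-plate medians.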

XMD14-99 + Linsitinib = compound: CN1CCN(CC1)C2=CC(=C(C=C2)NC3=NC(=C(S3)C(=O)C4=C(C=CC=C4Cl)Cl)N)OC [XMD14-99] + C[C@]1(O)C[C@@H](c2nc(-c3ccc4ccc(-c5ccccc5)nc4c3)c3c(N)nccn32)C1 [Linsitinib] (partner 1 µM)
How it was run: as §1

AZD1208 + Lapatinib = compound: N[C@@H]1CCCN(c2c(/C=C3\SC(=O)NC3=O)cccc2-c2ccccc2)C1 [AZD1208] + CS(=O)(=O)CCNCc1ccc(-c2ccc3ncnc(Nc4ccc(OCc5cccc(F)c5)c(Cl)c4)c3c2)o1 [Lapatinib] (partner 2 µM)
How it was run: as §1

XMD14-99 + Dasatinib = compound: CN1CCN(CC1)C2=CC(=C(C=C2)NC3=NC(=C(S3)C(=O)C4=C(C=CC=C4Cl)Cl)N)OC [XMD14-99] + Cc1nc(Nc2ncc(C(=O)Nc3c(C)cccc3Cl)s2)cc(N2CCN(CCO)CC2)n1 [Dasatinib] (partner 0.075 µM)
How it was run: as §1

Cell Line | relative viability (XMD14-99 + Pemetrexed; first compound 0.08 µM) | relative viability (XMD14-99 + Pemetrexed; first compound 0.8 µM) | relative viability (XMD14-99 + Pemetrexed; first compound 2.53 µM) | relative viability (XMD14-99 + Pemetrexed; first compound 8 µM) | relative viability (XMD14-99 + Linsitinib; first compound 0.08 µM) | relative viability (XMD14-99 + Linsitinib; first compound 0.8 µM) | relative viability (XMD14-99 + Linsitinib; first compound 2.53 µM) | relative viability (XMD14-99 + Linsitinib; first compound 8 µM) | relative viability (AZD1208 + Lapatinib; first compound 0.08 µM) | relative viability (AZD1208 + Lapatinib; first compound 0.253 µM) | relative viability (AZD1208 + Lapatinib; first compound 0.8 µM) | relative viability (AZD1208 + Lapatinib; first compound 2.53 µM) | relative viability (AZD1208 + Lapatinib; first compound 8 µM) | relative viability (XMD14-99 + Dasatinib; first compound 0.08 µM) | relative viability (XMD14-99 + Dasatinib; first compound 0.8 µM) | relative viability (XMD14-99 + Dasatinib; first compound 2.53 µM) | relative viability (XMD14-99 + Dasatinib; first compound 8 µM)
LU99A | 0.199 | 0.174 | 0.191 | 0.156 | 0.511 | 0.396 | 0.488 | 0.425 | 0.864 | 0.985 | 0.937 | 0.919 | 0.728 | 0.655 | 0.526 | 0.464 | 0.305
NCI-H2405 | 1.02 | 1.13 | 1 | 0.654 | 0.913 | 0.992 | 0.9 | 0.566 | 1.12 | 1.05 | 0.984 | 1.04 | 0.841 | 0.21 | 0.204 | 0.209 | 0.173
NCI-H2023 | 0.249 | 0.249 | 0.224 | 0.167 | 0.662 | 0.551 | 0.63 | 0.514 | 0.757 | 0.903 | 0.68 | 0.668 | 0.635 | 0.536 | 0.607 | 0.739 | 0.404
HCC-15 | 0.208 | 0.218 | 0.221 | 0.209 | 0.91 | 0.902 | 0.826 | 0.702 | 0.871 | 0.858 | 0.874 | 0.858 | 0.831 | 0.601 | 0.65 | 0.548 | 0.431
COR-L23 | 0.192 | 0.207 | 0.166 | 0.184 | 0.865 | 0.806 | 0.891 | 0.478 | 0.991 | 1.18 | 0.942 | 1.02 | 0.916 | 0.556 | 0.452 | 0.337 | 0.183
HCC-78 | 0.852 | 0.899 | 0.943 | 0.934 | 0.526 | 0.477 | 0.509 | 0.446 | 0.779 | 0.888 | 0.621 | 0.845 | 0.966 | 0.421 | 0.299 | 0.431 | 0.239
NCI-H838 | 0.253 | 0.226 | 0.255 | 0.198 | 0.948 | 0.932 | 0.92 | 0.681 | 0.988 | 1.17 | 0.856 | 0.936 | 0.86 | 0.303 | 0.324 | 0.245 | 0.216
NCI-H2126 | 0.634 | 0.681 | 0.677 | 0.537 | 0.739 | 0.705 | 0.668 | 0.628 | 0.796 | 0.689 | 0.63 | 0.691 | 0.525 | 0.617 | 0.632 | 0.513 | 0.402
BEN | 0.747 | 0.794 | 0.845 | 0.492 | 0.872 | 0.816 | 0.81 | 0.762 | 0.677 | 0.449 | 0.524 | 0.568 | 0.437 | 0.29 | 0.36 | 0.25 | 0.244
